US10934302B1, “SHP2 phosphatase inhibitors and methods of use thereof” (Relay Therapeutics, Inc., priority 2018, dated 2021)

biological target: SHP2 (Homo sapiens (Human), UniProt Q06124); experiment: SHP2 allosteric inhibition assay (DiFMUP prompt fluorescence); assay type: biochemical; details: 0.25 nM SHP2 activated with 0.5 μM peptide IRS1_pY1172(dPEG8)pY1222; substrate DiFMUP
Sequence (Q06124 whole entry): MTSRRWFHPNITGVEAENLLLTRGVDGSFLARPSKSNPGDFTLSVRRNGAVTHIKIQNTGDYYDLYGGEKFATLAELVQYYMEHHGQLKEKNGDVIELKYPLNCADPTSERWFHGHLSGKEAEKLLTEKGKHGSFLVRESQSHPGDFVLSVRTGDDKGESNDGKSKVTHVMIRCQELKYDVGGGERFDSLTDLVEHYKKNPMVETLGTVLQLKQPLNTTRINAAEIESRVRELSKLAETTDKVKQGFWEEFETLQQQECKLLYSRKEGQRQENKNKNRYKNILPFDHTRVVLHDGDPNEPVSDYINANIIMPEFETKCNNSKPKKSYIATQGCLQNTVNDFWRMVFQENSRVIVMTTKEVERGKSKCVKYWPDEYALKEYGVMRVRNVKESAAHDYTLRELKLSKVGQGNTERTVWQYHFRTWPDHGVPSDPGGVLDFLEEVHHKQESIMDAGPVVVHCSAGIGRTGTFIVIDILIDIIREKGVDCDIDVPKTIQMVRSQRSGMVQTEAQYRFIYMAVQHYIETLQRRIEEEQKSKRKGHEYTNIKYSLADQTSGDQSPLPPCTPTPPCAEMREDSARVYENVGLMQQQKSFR

SMILES | IC50
Cc1nc2c(N3CCCc4c3ccn(C)c4=O)n[nH]c2nc1N1CCC2(CC1)Cc1ccccc1[C@H]2N [Example 247, 1-{6-[(3S)-3-amino-1,3-dihydrospiro[indene-2,4′-piperidin]-1′-yl]-5-methyl-1H-pyrazolo[3,4-b]pyrazin-3-yl}-6-methyl-1,2,3,4,5,6-hexahydro-1,6-naphthyridin-5-one] | 1000 to 10000 nM
N[C@@H]1c2ccccc2CC12CCN(c1cnc(C(=O)N3CCCc4ncccc43)cn1)CC2 [Example 111] | ≤ 50 nM
NC1c2ncccc2CC12CCN(c1cnc3c(N4CCCc5ncccc54)n[nH]c3n1)CC2 (stereo not drawn) [Example 45] | ≤ 50 nM
N[C@@H]1c2ccccc2OC12CCN(c1cnc3c(N4CCCc5ncccc54)n[nH]c3n1)CC2 [Example 119, (R)-1′-(3-(3,4-dihydro-1,5-naphthyridin-1(2H)-yl)-1H-pyrazolo[3,4-b]pyrazin-6-yl)-3H-spiro[benzofuran-2,4′-piperidin]-3-amine] | ≤ 50 nM
Cc1nccc(Sc2n[nH]c3nc(N4CCC5(CC4)Cc4ccccc4[C@H]5N)c(CO)nc23)c1Cl [Example 89] | ≤ 50 nM
Nc1nc(N2CCC3(CC2)Cc2ccccc2[C@@H]3N)cnc1-c1cccc(Cl)c1Cl [Example 21, (3R)-1′-[6-amino-5-(2,3-dichlorophenyl)pyrazin-2-yl]-1,3-dihydrospiro[indene-2,4′-piperidin]-3-amine] | ≤ 50 nM
N[C@H]1c2cccc(F)c2CC12CCN(c1cnc3c(N4CCCc5ncccc54)n[nH]c3n1)CC2 [Example 16] | 1000 to 10000 nM
Cn1cc(-c2ccc3c(n2)CCCN3c2n[nH]c3nc(N4CCC5(CC4)Cc4cccnc4C5N)cnc23)cn1 (stereo not drawn) [Example 46] | ≤ 50 nM
N[C@@H]1c2ccccc2CC12CCN(c1cnc(SC3CC3)cn1)CC2 [Example 241, (S)-1′-(5-(cyclopropylthio)pyrazin-2-yl)-1,3-dihydrospiro[indene-2,4′-piperidin]-1-amine] | ≤ 50 nM
Cc1nc2c(ccn2C2=CCOCC2)nc1N1CCC2(CC1)Cc1ccccc1[C@H]2N [Example 193, (3S)-1′-[5-(3,6-dihydro-2H-pyran-4-yl)-3-methyl-5H-pyrrolo[2,3-b]pyrazin-2-yl]-1,3-dihydrospiro[indene-2,4′-piperidin]-3-amine] | ≤ 50 nM
Nc1nccc(Sc2cnc(N3CCC4(CC3)Cc3ccccc3[C@H]4N)cn2)c1Cl [Example 81, (S)-1′-(5-((2-amino-3-chloropyridin-4-yl)thio)pyrazin-2-yl)-1,3-dihydrospiro[indene-2,4′-piperidin]-1-amine] | ≤ 50 nM
CNC(=O)c1n[nH]c2nc(N3CCC4(CC3)Cc3ccccc3[C@H]4N)c(CO)nc12 [Example 155, 6-[(3S)-3-amino-1,3-dihydrospiro[indene-2,4′-piperidin]-1′-yl]-5-(hydroxymethyl)-N-methyl-1H-pyrazolo[3,4-b]pyrazine-3-carboxamide] | ≤ 50 nM
Nc1nccc(Sc2n[nH]c3nc(N4CCC5(CC4)Cc4ccccc4[C@H]5N)cnc23)c1Cl [Example 86, (S)-1′-(3-((2-amino-3-chloropyridin-4-yl)thio)-1H-pyrazolo[3,4-b]pyrazin-6-yl)-1,3-dihydrospiro[indene-2,4′-piperidin]-1-amine] | ≤ 50 nM
N[C@@H]1c2cc(F)cc(F)c2CC12CCN(c1cnc3c(N4CCCc5ncccc54)n[nH]c3n1)CC2 [Example 109] | ≤ 50 nM
Cc1nc2c(N3CCOCC3)n[nH]c2nc1N1CCC2(CC1)Cc1ccccc1[C@H]2N [Example 160, (3S)-1′-[5-methyl-3-(morpholin-4-yl)-1H-pyrazolo[3,4-b]pyrazin-6-yl]-1,3-dihydrospiro[indene-2,4′-piperidin]-3-amine] | ≤ 50 nM
Nc1nccc(Sc2cnc(N3CCC4(CC3)Cc3ccccc3[C@H]4N)nc2)c1Cl [Example 93] | ≤ 50 nM
Nc1nccc(Oc2cnc(N3CCC4(CC3)Oc3ccccc3[C@H]4N)cn2)c1Cl [Example 187, (3R)-1′-{5-[(2-amino-3-chloropyridin-4-yl)oxy]pyrazin-2-yl}-3H-spiro[1-benzofuran-2,4′-piperidin]-3-amine] | ≤ 50 nM
Cn1c(N2CCC3(CC2)Cc2ccccc2[C@H]3N)ccc(N2CCCc3ccccc32)c1=O [Example 206] | ≤ 50 nM
N[C@@H]1c2ccccc2CC12CCN(c1cnc3c(-c4ccncc4F)n[nH]c3n1)CC2 [Example 74] | ≤ 50 nM
CC(=O)N1CCN(c2n[nH]c3nc(N4CCC5(CC4)Cc4ccccc4[C@H]5N)cnc23)c2ccccc21 [Example 2, 1-(4-{6-[(3S)-3-amino-1,3-dihydrospiro[indene-2,4′-piperidin]-1′-yl]-1H-pyrazolo[3,4-b]pyrazin-3-yl}-1,2,3,4-tetrahydroquinoxalin-1-yl)ethan-1-one] | ≤ 50 nM
Cc1nc2c(N3CCC(F)(F)CC3)n[nH]c2nc1N1CCC2(CC1)Cc1ccccc1[C@H]2N [Example 186, (3S)-1′-[3-(4,4-difluoropiperidin-1-yl)-5-methyl-1H-pyrazolo[3,4-b]pyrazin-6-yl]-1,3-dihydrospiro[indene-2,4′-piperidin]-3-amine] | ≤ 50 nM
N[C@@H]1c2ccccc2CC12CCN(c1nn3cc(C4CCCC4)nc3s1)CC2 [Example 252, (1S)-1′-{6-cyclopentylimidazo[2,1-b][1,3,4]thiadiazol-2-yl}-1,3-dihydrospiro[indene-2,4′-piperidin]-1-amine] | ≤ 50 nM
N[C@@H]1c2ccccc2OC12CCN(c1cnc3c(N4CCCc5nc(-c6ncco6)ccc54)n[nH]c3n1)CC2 [Example 61] | ≤ 50 nM

SMILES | IC50
N[C@H]1c2ccccc2CC12CCN(c1cnc3c(-c4cc5cc[nH]c5cc4F)n[nH]c3n1)CC2 [Example 73] | ≤ 50 nM
N[C@@H]1c2ccccc2CC12CCN(c1cnc3c(-c4ccnc(Cl)c4F)n[nH]c3n1)CC2 [Example 67, (3S)-1′-[3-(2-chloro-3-fluoropyridin-4-yl)-1H-pyrazolo[3,4-b]pyrazin-6-yl]-1,3-dihydrospiro[indene-2,4′-piperidin]-3-amine] | ≤ 50 nM
Nc1nccc(Sc2ccc(N3CCC4(CC3)Cc3ccccc3[C@H]4N)cn2)c1Cl [Example 97] | 50 to 1000 nM
CS(=O)(=O)c1cccc2c1CCCN2c1n[nH]c2nc(N3CCC4(CC3)Cc3c(F)cccc3[C@H]4N)cnc12 [Example 56] | ≤ 50 nM
N[C@@H]1c2cccc(F)c2OC12CCN(c1cnc(Sc3ccnc(Cl)c3Cl)cn1)CC2 [Example 82, (3R)-1′-{5-[(2,3-dichloropyridin-4-yl)sulfanyl]pyrazin-2-yl}-7-fluoro-3H-spiro[1-benzofuran-2,4′-piperidin]-3-amine] | ≤ 50 nM
Cc1nc2c(N3CCCc4c3ccn(C)c4=O)n[nH]c2nc1N1CCC2(CC1)Cc1cc(F)ccc1[C@H]2N [Example 245] | 1000 to 10000 nM
N[C@@H]1c2c(F)ccc(F)c2CC12CCN(c1cnc3c(N4CCCc5ncccc54)n[nH]c3n1)CC2 [Example 112] | ≤ 50 nM
NC1c2ccccc2C[C@]12CC[C@H](c1ccc(SCC3CC3)nc1)CC2 (single isomer, unassigned) [Example 281, (1s, 3'S, 4R)-4-{6-[(cyclopropylmethyl)sulfanyl]pyridin-3-yl}-1′,3′-dihydrospiro[cyclohexane-1,2′-inden]-3′-amine] | 50 to 1000 nM
Cc1nc2c(N3CCCCC3)n[nH]c2nc1N1CCC2(CC1)Cc1ccccc1[C@H]2N [Example 152, (3S)-1′-[5-methyl-3-(piperidin-1-yl)-1H-pyrazolo[3,4-b]pyrazin-6-yl]-1,3-dihydrospiro[indene-2,4′-piperidin]-3-amine] | ≤ 50 nM
N[C@@H]1c2ccccc2CC12CCN(c1ncnc3c1cnn3-c1ccccc1)CC2 [Example 195, (3S)-1′-{1-phenyl-1Hpyrazolo[3,4-d]pyrimidin-4-yl}-1,3-dihydrospiro[indene-2,4′-piperidin]-3-amine] | ≤ 50 nM
N[C@H]1c2ccccc2CC12CCN(c1cnc3c(-c4cccc5ncccc45)n[nH]c3n1)CC2 [Example 69] | ≤ 50 nM
Cc1cc(-c2cccnc2)c(C)c(N2CCC3(CC2)Cc2ccccc2[C@H]3N)n1 [Example 294, (3S)-1′-{3′,6′-dimethyl-[3,4′-bipyridin]-2′-yl}-1,3-dihydrospiro[indene-2,4′-piperidin]-3-amine] | ≤ 50 nM
Cc1nc2c(N3CCCCC3)n[nH]c2nc1N1CCC2(CC1)Oc1ccccc1[C@H]2N [Example 162, (3R)-1′-[5-methyl-3-(piperidin-1-yl)-1H-pyrazolo[3,4-b]pyrazin-6-yl]-3H-spiro[1-benzofuran-2,4′-piperidin]-3-amine] | > 10000 nM
Cc1nc2c(N3CCCC3)n[nH]c2nc1N1CCC2(CC1)Cc1ccccc1[C@H]2N [Example 254, (1S)-1′-[5-methyl-3-(pyrrolidin-1-yl)-1H-pyrazolo[3,4-b]pyrazin-6-yl]-1,3-dihydrospiro[indene-2,4′-piperidin]-1-amine] | > 10000 nM
Nc1nccc(Sc2cnc3c(n2)OC[C@H]2C[C@@]4(CCN32)Oc2ccccc2[C@@H]4N)c1Cl [Example 221] | ≤ 50 nM
Cc1cc(N2CCC3(CC2)Cc2ccccc2[C@H]3N)cnc1Sc1ccnc(N)c1Cl [Example 219] | ≤ 50 nM
N[C@H]1c2ccccc2CC12CCN(c1cnc3c(-c4ccncc4F)n[nH]c3n1)CC2 [Example 75] | ≤ 50 nM
N[C@@H]1c2ccccc2CC12CCN(C(=O)c1csc(-c3c(Cl)cccc3Cl)n1)CC2 [Example 286, (1S)-1′-[2-(2,6-dichlorophenyl)-1,3-thiazole-4-carbonyl]-1,3-dihydrospiro[indene-2,4′-piperidin]-1-amine] | ≤ 50 nM
Cn1ncc2c1CC1(CCN(c3cnc4c(N5CCCc6ncccc65)n[nH]c4n3)CC1)[C@@H]2N [Example 110] | ≤ 50 nM
N[C@@H]1c2ccccc2CC12CCN(C(=O)c1ccccc1Oc1ccccc1)CC2 [Example 292, (3S)-1′-(2-phenoxybenzoyl)-1,3-dihydrospiro[indene-2,4′-piperidin]-3-amine] | > 10000 nM
N[C@@H]1c2ccccc2CC12CCN(c1cnc(SCCc3ccccc3)cn1)CC2 [Example 265, (S)-1′-(5-(phenethylthio)pyrazin-2-yl)-1,3-dihydrospiro[indene-2,4′-piperidin]-1-amine] | ≤ 50 nM
N[C@@H]1c2ccccc2CC12CCN(c1cnc3c(-c4cc5cc[nH]c5cc4F)n[nH]c3n1)CC2 [Example 72] | ≤ 50 nM
